Results published in PubChem BioAssay AID1421 (Emory University Molecular Libraries Screening Center, 2008).

Target: Prostaglandin E2 receptor EP2 subtype (Homo sapiens) (UniProt P43116)
Assay: compounds shifting PGE2 potency at EP2 – cell-based, human EP2, PGE2 EC50 shift, dose response (AID 1421)
Details: EP2-expressing cells, PGE2 EC50 shift by compound; measured here: PGE2 EC50 at 6.7 uM compound

Prostaglandin E2 receptor EP2 subtype (Homo sapiens), sequence (P43116 whole entry, looked up): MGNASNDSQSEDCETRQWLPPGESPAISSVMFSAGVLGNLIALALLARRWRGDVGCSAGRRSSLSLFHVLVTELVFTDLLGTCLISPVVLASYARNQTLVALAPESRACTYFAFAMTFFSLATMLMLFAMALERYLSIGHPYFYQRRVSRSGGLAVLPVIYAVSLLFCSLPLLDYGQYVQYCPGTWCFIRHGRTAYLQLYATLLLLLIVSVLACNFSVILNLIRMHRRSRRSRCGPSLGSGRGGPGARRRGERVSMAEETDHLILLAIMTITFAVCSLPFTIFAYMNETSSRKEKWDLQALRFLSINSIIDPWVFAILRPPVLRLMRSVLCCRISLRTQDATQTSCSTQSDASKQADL

Point of comparison: `Cc1cc(O)c(C=O)c2c1C(=O)Oc1c(C)c(O)c3c(c1O2)C(O)OC3=O` (configuration not stated), PGE2 EC50 with compound 0.76 nM. Against it:
- CCCCc1nc(SCCOC)c2c(=O)n(C)c(=O)n(C)c2n1 — 1.9-fold higher, 1.42 nM
- CCOC(=O)c1c(NC(=O)CC(C)C)sc(C(C)=O)c1C — 1.6-fold higher, 1.25 nM
- COc1ccc(OCC(=O)NC(=S)Nc2ccc3c4c(cccc24)CC3)cc1 — 3.8-fold higher, 2.85 nM
- O=c1c2ccccc2c(-c2ccc(Br)cc2)nn1Cc1ccccc1 — within 1.5-fold, 0.78 nM
- Cc1ccc(Cl)cc1NC(=S)N(Cc1ccco1)C(C)c1cccs1 (configuration not stated) — 2-fold higher, 1.51 nM
- O=C(Nc1ccccc1N1CCCCC1)c1ccccc1F — within 1.5-fold, 0.61 nM
- COc1ccc(-c2csc3nc(C)nc(N4CCC(C)CC4)c23)cc1OC — within 1.5-fold, 0.95 nM
- COc1ccccc1C(CC(=O)c1ccccc1)CC(=O)c1ccccc1 — 3.4-fold higher, 2.56 nM
- Cc1ccc(-n2c(SCC(N)=O)nc3c(c2=O)C2(CCCC2)Cc2ccccc2-3)cc1 — 3.7-fold higher, 2.78 nM
- O=C1CCC(C(=O)OCC(=O)N2N=C3/C(=C/c4ccccc4)CCCC3C2c2ccccc2)N1 (configuration not stated) — 1.9-fold higher, 1.47 nM
- Cc1ccc2nc(SCC(=O)NCc3ccco3)c(C)cc2c1 — the same, 0.76 nM
- CCOC(=O)c1c(-c2ccccc2)oc2ccc(OC)cc12 — within 1.5-fold, 1.04 nM
- O=C(Nc1ccccc1Oc1ccccc1)c1ccccc1F — within 1.5-fold, 1.07 nM
- Cn1c(=O)c(NCCc2ccccc2)c2c3c(cccc31)C(=O)c1ccccc1-2 — 2.5-fold lower, 0.31 nM
- COC(=O)c1sc2nc(N3CCCCC3)c3c(c2c1N)CCCC3 — within 1.5-fold, 0.85 nM
- Cn1c(=O)[nH]c(=O)c2c1nc(CN1CCN(c3cccc(Cl)c3)CC1)n2CCCc1ccccc1 — 1.6-fold higher, 1.19 nM
- CNC(=O)c1cc2c(=O)n3cc(C)ccc3nc2n(C(C)C)c1=N — within 1.5-fold, 1.13 nM
- Cc1cccnc1N(C(=O)Nc1cccc(Cl)c1)C1=NCC(C)(C)S1 — 1.6-fold higher, 1.22 nM
- O=C(c1cccs1)N1N=C(c2ccccc2)CC1c1ccc(O)cc1 (configuration not stated) — within 1.5-fold, 0.83 nM
- CC(C)Cc1nc(SCc2cccnc2)c2c(=O)n(C)c(=O)n(C)c2n1 — within 1.5-fold, 0.67 nM
- Clc1ccccc1C1NCc2ccccc2-n2cccc21 (configuration not stated) — 2.2-fold lower, 0.34 nM
- Cc1noc(C)c1CSc1ncnc2sc3c(c12)CCC(C)C3 (configuration not stated) — within 1.5-fold, 1.06 nM
- CCCCc1nc(N2CCOCC2)c(C#N)c2c1CCCC2 — within 1.5-fold, 0.98 nM
- COC(=O)c1c(NC(=O)c2ccc(Br)s2)sc2c1CCC2 — within 1.5-fold, 1.14 nM
- C=CCn1c(SCc2c(C)noc2C)nc2ccccc2c1=O — 2-fold higher, 1.49 nM
- COc1ccc(-n2c(COc3ccc(Cl)cc3)nnc2SCc2ccc(C#N)cc2)cc1 — 1.6-fold higher, 1.22 nM
- O=c1cc2c(nn1Cc1c(Cl)cccc1Cl)-c1ccccc1CC2 — within 1.5-fold, 0.79 nM
- CCOC(=O)C1CCN(c2c(-c3ccccc3)c3cc(Cl)ccc3[nH]c2=O)CC1 — within 1.5-fold, 1.03 nM
- CCc1c(C)nc2ccc(Br)cc2c1SCCC#N — 3.4-fold higher, 2.61 nM
- COC(=O)CC1C(C)(C)C(OC(C)=O)[C@@H]2[C@@H](OC(C)=O)[C@]34O[C@@]2(O)[C@]1(C)C3CC[C@]1(C)C4=CC(=O)O[C@H]1c1ccoc1 (some centres not stated) — within 1.5-fold, 0.74 nM
- CC1=CC2C(CC1=O)C(C)=CCC2C(C)C (configuration not stated) — within 1.5-fold, 0.86 nM
- CCOP(=S)(OCC)Oc1nc(Cl)c(Cl)cc1Cl — within 1.5-fold, 0.91 nM
- Cn1c(=O)[nH]c(=O)c2c1nc(CN1CCN(c3cccc(Cl)c3)CC1)n2Cc1ccccc1Cl — within 1.5-fold, 0.94 nM
- CCOCC(=O)Nc1cc(C(F)(F)F)ccc1Oc1cccc(Br)c1 — 1.6-fold lower, 0.49 nM
- CCOC(=O)c1ccc2nc(C(F)(F)F)[nH]c(=O)c2c1 — 1.6-fold higher, 1.19 nM
- O=C(Nc1ccccc1N1CCCCC1)c1ccc(Cl)c([N+](=O)[O-])c1 — 1.6-fold higher, 1.23 nM
- CCOc1cc(S(=O)(=O)NCCc2cccc(C)c2)c(OCC)cc1-n1cnnn1 — 1.6-fold higher, 1.21 nM
- COc1ccccc1N(C(=O)NCc1ccccc1)C1=NCC(C)S1 (configuration not stated) — 2.1-fold higher, 1.58 nM
- Cc1cccc(Oc2sc(C(=O)c3ccccc3)c(N)c2C#N)c1 — 2-fold higher, 1.51 nM
- c1cncc(-c2nc(N3CCCCCC3)c3ccccc3n2)c1 — within 1.5-fold, 0.91 nM
- CCCOc1ccccc1Cn1c(=O)oc2ccc(C)cc21 — 3.5-fold higher, 2.64 nM
- Cc1ccc(C(C)C)c(OCCn2c(=O)oc3ccccc32)c1 — 3.4-fold higher, 2.6 nM
- NCCc1c(-c2ccccc2)n(-c2ccccc2)c2ccccc12 — 1.6-fold higher, 1.25 nM
- Cc1cc(-c2ccccc2)nc2cc(C(=O)N(Cc3ccccc3)Cc3ccccc3)nn12 — within 1.5-fold, 1.03 nM
- O=S(=O)(c1ccc(F)c(Cl)c1)N1CCCC1 — within 1.5-fold, 1.02 nM
- CN(C)Cc1ccccc1Sc1cccc2ccccc12 — within 1.5-fold, 1.07 nM
- Cc1ccc(S(=O)(=O)NCC(=O)OCN2C(=O)c3ccccc3C2=O)cc1 — within 1.5-fold, 1.01 nM
- CCCOC(=O)c1ccc(NC(=O)c2cn(CC)c3nc(C)ccc3c2=O)cc1 — 2.1-fold higher, 1.57 nM
- Cc1ccc(-n2c(Cc3cccc4ccccc34)n[nH]c2=S)c(C)c1 — within 1.5-fold, 0.68 nM
- CSc1ncc2c(n1)-c1cc(C)ccc1SC2 — within 1.5-fold, 0.93 nM
- O=C1C2C3c4ccccc4C(c4ccccc43)[C@@H]2c2nc3ccccc3n21 (some centres not stated) — within 1.5-fold, 0.7 nM
- COc1ccc(-n2c(CCc3ccccc3)nnc2SCC(=O)c2ccccc2)cc1 — 2.1-fold higher, 1.57 nM
- Cc1ccc(NC2=C(C(=O)c3ccccc3)N(C)S(=O)(=O)c3ccccc32)cc1 — 1.7-fold higher, 1.28 nM
- CCOP(=O)(OCC)c1nc(-c2cccc3ccccc23)oc1NCc1ccc(OC)cc1 — within 1.5-fold, 0.72 nM
- CCOC(=O)c1ccccc1NC(=O)CSc1ccccc1 — within 1.5-fold, 1.07 nM
- Cc1cc(Nc2ccc(Br)cc2)n2nc(C)nc2n1 — within 1.5-fold, 1.06 nM
